Values quoted from earlier work as cited in patent US20060003984A1, “Monobactam compositions and methods of use thereof” (Chiron Corporation, priority 2001, published 2006).

System: Gram-negative bacteria
Settings: many Gram-negative bacteria

NC[C@H]1O[C@H](O[C@H]2[C@H](O)[C@@H](O[C@H]3O[C@H](CO)[C@@H](O)[C@H](N)[C@H]3O)[C@H](N)C[C@@H]2N)[C@H](N)C[C@@H]1O [tobramycin]
concentration effective in inhibiting growth: < 4 µg/mL
